These results are taken from BindingDB's records for doi:10.1021/jm00164a002 (Syntex Research, 1990).

This test deals with T1, Neutrophil elastase (Homo sapiens, UniProt P08246).
T1 sequence (P08246 whole entry): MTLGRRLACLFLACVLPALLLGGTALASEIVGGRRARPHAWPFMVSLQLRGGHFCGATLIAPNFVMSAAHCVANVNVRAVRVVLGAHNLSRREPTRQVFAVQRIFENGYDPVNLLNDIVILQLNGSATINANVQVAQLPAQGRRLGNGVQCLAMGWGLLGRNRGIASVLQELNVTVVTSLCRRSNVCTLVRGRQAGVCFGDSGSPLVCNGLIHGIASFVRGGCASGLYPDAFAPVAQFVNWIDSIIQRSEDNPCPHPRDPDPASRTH
Put plainly: Component deacylation rate constant for interaction with human leukocyte elastase. The conditions noted are these: for kon: read-out: kon (M-1-s-1).

In the case of `CCSc1nc2cccc(C)c2c(=O)o1`, the koff (in general, a measure of how fast the partners let go of each other) worked out at 0.00141 s⁻¹ and the kon (commonly the rate constant with which the complex forms) was determined as 1.51e+06 M⁻¹ s⁻¹.

Consider `COC(=O)[C@@H](CC(C)C)Nc1nc2ccccc2c(=O)o1`, for which the affinity corresponds to a Ki of 39.8 nM, the koff is 0.00138 s⁻¹ and the kon came out at 39800 M⁻¹ s⁻¹.

As to `COC(=O)[C@H](CC(C)C)Nc1nc2ccccc2c(=O)o1`, the Ki (commonly the dissociation constant of the complex between target and ligand, obtained from inhibition or displacement) is 159 nM; the off-rate (koff) amounted to 0.000389 s⁻¹; the kon was 2290 M⁻¹ s⁻¹.

For `COc1cc2nc(SCc3c[nH]cn3)oc(=O)c2cc1OC`, the affinity corresponds to a Ki of 1000 nM, the koff was 0.00759 s⁻¹ and the kon amounted to 6920 M⁻¹ s⁻¹.

Regarding `O=c1oc(/C=C/c2ccccc2)nc2ccccc12`, the koff came to 0.00316 s⁻¹ and the kon stood at 389 M⁻¹ s⁻¹.

Consider `COc1cc(C)c2c(=O)oc(NC(C)C)nc2c1`, for which the koff is 0.000794 s⁻¹ and the kon worked out at 20900 M⁻¹ s⁻¹.

`CC(C)C[C@H](NC(=O)C1CCCN1c1nc2ccccc2c(=O)o1)C(N)=O` (some centres not stated): the koff was determined as 0.000324 s⁻¹ and the on-rate (kon) came to 15100 M⁻¹ s⁻¹.

In the case of `Cc1cc(N)cc2nc(NC(C)C)oc(=O)c12`, the koff was 1.78e-05 s⁻¹ and the kon came to 229 M⁻¹ s⁻¹.

Take `COC(=O)[C@H](Cc1ccc(O)cc1)Nc1nc2ccccc2c(=O)o1`: the koff stood at 0.000851 s⁻¹ and the kon turned out to be 1900 M⁻¹ s⁻¹.

`Cc1cc(C)c2c(=O)oc(NC(C)C)nc2c1`: the Ki was 6.31 nM, the off-rate constant (koff) came to 1.51e-05 s⁻¹ and the on-rate (kon) came out at 2570 M⁻¹ s⁻¹.

In the case of `CCC(C)CNc1nc2cccc(C)c2c(=O)o1` (configuration not stated), the koff was 7.41e-05 s⁻¹ and the kon came to 112 M⁻¹ s⁻¹.

For `CC(C)C[C@H](NC(=O)[C@@H]1CCCN1c1nc2ccccc2c(=O)o1)C(=O)NCC(N)=O`, the off-rate (koff) was 0.000229 s⁻¹ and the kon is 11000 M⁻¹ s⁻¹.

Regarding `CCc1cccc2c(=O)oc(NC(C)C)nc12`, the off-rate (koff) worked out at 0.024 s⁻¹ and the kon was 24000 M⁻¹ s⁻¹.

As to `CCSc1nc2cc(OC)c(OC)cc2c(=O)o1`, the on-rate constant (kon) amounted to 100000 M⁻¹ s⁻¹.

For `Cc1cccc2nc(OCC(C)C)oc(=O)c12`, the koff turned out to be 1.12e-05 s⁻¹ and the on-rate constant (kon) turned out to be 7080 M⁻¹ s⁻¹.

In the case of `Cc1cccc2nc(C(F)(F)F)oc(=O)c12`, the Ki was found to be 31.6 nM, the koff was 0.00371 s⁻¹ and the kon is 129000 M⁻¹ s⁻¹.

As for `CCCCNc1nc2cc(N)ccc2c(=O)o1`, the koff worked out at 0.00182 s⁻¹ and the kon was found to be 2820 M⁻¹ s⁻¹.

On to `CCOc1nc2cc(N(C)C)ccc2c(=O)o1`, for which the koff amounted to 1.41e-05 s⁻¹ and the on-rate constant (kon) was 2880 M⁻¹ s⁻¹.

`COc1cc2nc(SCc3ccccc3)oc(=O)c2cc1OC`: the Ki turned out to be 2000 nM, the dissociation rate constant (koff) amounted to 0.0123 s⁻¹ and the kon was 5750 M⁻¹ s⁻¹.

In the case of `CCCC(C)Nc1nc2cccc(C)c2c(=O)o1` (configuration not stated), the affinity, expressed as Ki, was 794 nM; the off-rate (koff) is 0.00371 s⁻¹; the kon amounted to 5010 M⁻¹ s⁻¹.

As to `CC(C)Cc1nc2ccccc2c(=O)o1`, the kon is 20000 M⁻¹ s⁻¹.

Turning to `C/C=C/c1cccc2nc(OCC)oc(=O)c12`, the koff came to 6.61e-05 s⁻¹ and the association rate constant (kon) came out at 347000 M⁻¹ s⁻¹.

In the case of `CCSc1nc2c(C)cccc2c(=O)o1`, the kon amounted to 2e+06 M⁻¹ s⁻¹.

As to `CCCc1cccc2nc(OCC)oc(=O)c12`, the koff is 7.08e-05 s⁻¹ and the kon turned out to be 309000 M⁻¹ s⁻¹.

As for `O=c1oc(C(F)(F)F)nc2ccccc12`, the Ki amounted to 159 nM and the on-rate constant (kon) amounted to 100000 M⁻¹ s⁻¹.

For the compound `CCOc1nc2cccc(C(Br)Br)c2c(=O)o1`, the koff stood at 0.00468 s⁻¹ and the association rate constant (kon) is 1e+07 M⁻¹ s⁻¹.

`CCCNC(=O)Nc1ccc2c(=O)oc(NC(C)C)nc2c1`: the koff was determined as 0.017 s⁻¹ and the kon came to 12600 M⁻¹ s⁻¹.

Take `CCC(CC)Nc1nc2cccc(C)c2c(=O)o1`: the Ki worked out at 794 nM, the koff was found to be 0.00562 s⁻¹ and the kon turned out to be 7760 M⁻¹ s⁻¹.

As to `CCSc1nc2ccc(C)cc2c(=O)o1`, the Ki was determined as 159 nM and the kon stood at 1e+06 M⁻¹ s⁻¹.

For `Cc1cc(N(C)C)cc2nc(NC(C)C)oc(=O)c12`, the koff is 0.000129 s⁻¹ and the kon was 102 M⁻¹ s⁻¹.

Turning to `NC(=O)[C@H](Cc1ccccc1)NC(=O)[C@@H]1CCCN1c1nc2ccccc2c(=O)o1`, the Ki was found to be 39.8 nM, the off-rate constant (koff) was 0.000537 s⁻¹ and the kon stood at 14400 M⁻¹ s⁻¹.

Consider `O=c1oc(NCCc2ccccc2)nc2ccccc12`, for which the Ki came to 1590 nM, the koff stood at 0.00191 s⁻¹ and the on-rate constant (kon) turned out to be 1120 M⁻¹ s⁻¹.

As for `CSc1nc2cccc(C)c2c(=O)o1`, the dissociation rate constant (koff) worked out at 0.000355 s⁻¹ and the kon was 251000 M⁻¹ s⁻¹.

With `CC(C)Nc1nc2cc(N(C)C)ccc2c(=O)o1`, the koff was 0.000479 s⁻¹ and the kon was found to be 1000 M⁻¹ s⁻¹.

Turning to `CCOC(=O)[C@H](C)Nc1nc2ccccc2c(=O)o1`, the Ki was 794 nM, the koff was 0.00224 s⁻¹ and the kon is 2570 M⁻¹ s⁻¹.

As to `CC(C)(C)c1nc2ccccc2c(=O)o1`, the kon was 10000 M⁻¹ s⁻¹.

With `CC(C)CN(CC(C)C)c1nc2ccccc2c(=O)o1`, the koff was determined as 0.000977 s⁻¹ and the kon was determined as 151 M⁻¹ s⁻¹.

For `Cc1nc2c(N)cccc2c(=O)o1`, the kon stood at 2000 M⁻¹ s⁻¹.

Take `CC(=O)NCc1nc2ccccc2c(=O)o1`: the koff was 0.00132 s⁻¹ and the kon is 174 M⁻¹ s⁻¹.

`O=c1oc(C(F)(F)C(F)(F)C(F)(F)F)nc2ccccc12`: the Ki came to 100 nM and the kon came out at 10000 M⁻¹ s⁻¹.

Take `NC(=O)[C@H](Cc1ccccc1)Nc1nc2ccccc2c(=O)o1`: the koff was found to be 0.00038 s⁻¹ and the kon was determined as 1200 M⁻¹ s⁻¹.

On to `COC(=O)[C@H](CC(C)C)NC(=O)[C@H](CC(C)C)Nc1nc2cc(C)cc(C)c2c(=O)o1`, for which the kon was 1260 M⁻¹ s⁻¹.

For the compound `CCCCN(CCCC)c1nc2ccccc2c(=O)o1`, the affinity corresponds to a Ki of 5010 nM, the koff amounted to 0.00123 s⁻¹ and the kon amounted to 269 M⁻¹ s⁻¹.

`CCCc1cc(N(C)C)cc2nc(NC(C)C)oc(=O)c12`: the koff was determined as 0.000182 s⁻¹ and the kon was found to be 646 M⁻¹ s⁻¹.

Consider `CCSc1nc2ccc(NC(C)=O)cc2c(=O)o1`, for which the Ki amounted to 1590 nM and the kon came to 10000 M⁻¹ s⁻¹.

Consider `Cc1cccc2c(=O)oc(NC(C)C)nc12`, for which affinity was put at a Ki of 631 nM.

Regarding `Cc1ccc2nc(C)oc(=O)c2c1`, the affinity, expressed as Ki, was 31600 nM.

`O=c1oc(C(F)(F)C(F)(F)F)nc2ccccc12` came in with a Ki of 100 nM.

Turning to `CCCCNc1nc2cccc(CC)c2c(=O)o1` [2-Butylamino-5-ethyl-benzo[d][1,3]oxazin-4-one], the koff came out at 0.000537 s⁻¹ and the kon was found to be 129000 M⁻¹ s⁻¹.

The compound `CCCCNc1nc2ccccc2c(=O)o1` [2-Butylamino-benzo[d][1,3]oxazin-4-one] yielded a Ki of 79.4 nM.

Regarding `Cc1cccc2nc(NC(C)C)oc(=O)c12` [2-Isopropylamino-5-methyl-benzo[d][1,3]oxazin-4-one], the Ki is 1.58 nM.

As for `CC(C)Nc1nc2ccccc2c(=O)o1` [2-Isopropylamino-benzo[d][1,3]oxazin-4-one], the koff turned out to be 0.00309 s⁻¹ and the kon came to 58900 M⁻¹ s⁻¹.

Take `O=c1oc(-c2ccccc2)nc2ccccc12` [2-Phenyl-4H-3,1-benzoxazin-4-one (3)]: the kon was found to be 10000 M⁻¹ s⁻¹.

In turn, `CCCNc1nc2ccccc2c(=O)o1` [2-Propylamino-benzo[d][1,3]oxazin-4-one] gave a Ki of 100 nM.

As to `CNc1nc2cccc(C)c2c(=O)o1` [5-Methyl-2-methylamino-benzo[d][1,3]oxazin-4-one], the koff stood at 0.151 s⁻¹ and the kon was found to be 4900 M⁻¹ s⁻¹.

Consider `CCCNc1nc2cccc(C)c2c(=O)o1` [5-Methyl-2-propylamino-benzo[d][1,3]oxazin-4-one], for which the affinity, expressed as Ki, was 6.31 nM; the koff was 0.000339 s⁻¹; the kon came to 56200 M⁻¹ s⁻¹.
